{"source": "patent US6054437A", "about": "“Method for inducing death of neoplastic cells using piperazine derivatives” (Hitachi Chemical Research Center, Inc., priority 1997, dated 2000)", "key": {"T-47D (breast)": {"system": "T-47D (breast)", "assay": "Cancer cell survival assay, T-47D", "assay_type": "cell-based, human", "conditions": "seven days, alone", "description": "(§1) Cell survival was assayed in cultured tumor cells. From 500-1000 cells per well were plated in 24-welled culture dishes and exposed to drug for seven days. After drug exposure, a computerized cell imaging technique was utilized to ascertain the number of viable cells remaining in each culture. From the data, survival curves were plotted and a ED50 (drug concentration that permits 50% cell survival) were calculated.\n(§2) The cancer cell survival assay is an important additional in vitro assay to assess the anti-neoplastic activity of compounds as the cells are given a prolonged exposure (seven days) to the drug. FIGS. 9-16 show the effect of increasing the dose of NCO-700 on the survival of a number of cancer cell lines. […] In the figures, the vertical axis is the object area, which is the number of surviving cancer cells calculated by a computer."}, "LS-174T (colon)": {"system": "LS-174T (colon)", "assay": "Cancer cell survival assay, LS-174T", "assay_type": "cell-based, human", "conditions": "seven days, alone", "description": "as §1, §2"}, "KB-V-1 (resistant cells)": {"system": "KB-V-1 (resistant cells)", "assay": "Drug accumulation assay ([3H]-vinblastine), resistant cells", "assay_type": "cell-based, human", "conditions": "KB-V-1, 20 μM NCO-700 + vinblastine", "description": "1. Drug Accumulation Assays\nwhere the effect of NCO-700 on the uptake of radioactive (^3 H)-vinblastine, an anticancer drug, is measured in cultured cancer cells, that are both drug-resistant and drug-sensitive (Reference 3).\nIn the first two in vitro assays, the drug accumulation assay and the cell survival assay, a human pharyngeal carcinoma cell line (KB-V-1) which is highly resistant to anticancer drugs was used. This cell line was developed by Drs. Ira Pastan and Michael Gottesman of the National Cancer Institute, by step-wise selection in colchicine of drug-resistant cells. The control cancer cell line (KB-3), from which the resistant cell lines were derived, is sensitive to anticancer drugs.\nMeasurement of [^3 H]-vinblastine accumulation was performed by the methods developed in the laboratory of Drs. […] In this method, KB-V-1 and KB-3 cells were plated in 10% fetal bovine serum at a density of 3×10^5 cells per well in 24-well Costar plates. The next day, the growth medium was replaced with Dulbecco's modified Eagle's medium with or without (control cells) 20 μM NCO-700. After ten minutes, the medium was removed and replaced with assay medium (0.5 ml) containing 0.1 μCi, (13 pmol) [^3 H]-vinblastine in the presence or absence of 20 μM NCO-700. After an additional 30 min, the medium was removed, the plates were washed three times in ice-cold phosphate-buffered saline, the cells were detached with trypsin, and radioactivity determined by scintillation counting."}, "[1]": {"system": "breast cancer tumor cells from patients", "assay": "Human tumor biopsy assay (tumor cloning system), breast tumors", "assay_type": "cell-based", "conditions": "20 μM NCO-700, two breast tumors", "description": "(§3) 4. Human Tumor Biopsy Assays\n(§4) where the effect of NCO-700 to enhance killing, by either vinblastine or adriamycin, of cancer cells cultured directly from patient's tumors (Von Hoff et al., Cancer Res. 43:1926-1931, 1983).\n(§5) For the tumor biopsy assay, primary cell cultures were propagated directly from tumor specimens removed from patients. The cells were grown in suspension culture, treated with adriamycin or vinblastine plus NCO-700, and plated onto soft agar and incubated for two weeks before cell survival was determined.\n(§6) In a final series of experiments, the effect of NCO-700 on survival of cells cultured directly from biopsied patient tumors was performed. This technique, referred to as a human tumor cloning system, was developed by Von Hoff and associates (Von Hoff et al., Cancer Res. 43:1926-1931, 1983) and was used clinically to predict the course of chemotherapy for these patients. In this method, tumor biopsies were separated into cell suspensions and treated for 1 hour with either 0.4 mg/ml vinblastine (VLB) or 0.5 mg/ml adriamycin (ADR) plus or minus 20 μM NCO-700. The cell suspensions were washed after one hour of incubation and plated with soft agar. After 14 days of incubation at 37°, the percent of colonies surviving was scored. […] In particular, the survival of tumor cells decreased to approximately 1/2 to 1/3 after exposure to NCO-700 and adriamycin. […]"}, "kidney tumor cells": {"system": "kidney tumor cells", "assay": "Human tumor biopsy assay, kidney tumor", "assay_type": "cell-based", "conditions": "20 μM NCO-700 and 0.5 mg/ml adriamycin, 1 hour", "description": "as §3, §4, §5, §6"}, "PC-3 (prostate)": {"system": "PC-3 (prostate)", "assay": "Cancer cell survival assay, PC-3", "assay_type": "cell-based, human", "conditions": "PC-3, seven days, alone", "description": "as §1, §2"}}, "note": "Counter-ions that a name gives are not always drawn.", "data": [{"smiles": "CCOC(=O)[C@@H]1O[C@H]1C(=O)N[C@@H](CC(C)C)C(=O)N1CCN(Cc2ccc(OC)c(OC)c2OC)CC1", "note": "[NCO-700, Bis[ethyl (2R,3R)-3-[(S)-3-methyl-1-[4-(2,3,4-trimethoxyphenylmethyl)piperazin-1-ylcarbonyl]butylcarbamoyl]oxirane-2-carboxylate] Sulfate]", "values": [{"measurement": "anti-neoplastic activity (cell survival)", "setting": "T-47D (breast)", "value": "significant anti-neoplastic activity"}, {"measurement": "anti-neoplastic activity (cell survival)", "setting": "LS-174T (colon)", "value": "significant anti-neoplastic activity"}, {"measurement": "vinblastine accumulation", "setting": "KB-V-1 (resistant cells)", "value": "1.56 ± 0.03 pmole vinblastine/mg protein"}, {"measurement": "sensitization of tumor cells to adriamycin and vinblastine", "setting": "[1]", "value": "significantly sensitized these tumor cells to the actions of adriamycin (ADR) and vinblastine (VLB)"}, {"measurement": "survival of tumor cells decreased to (fraction)", "setting": "kidney tumor cells", "value": "approximately 1/4"}, {"measurement": "anti-neoplastic activity (cell survival)", "setting": "PC-3 (prostate)", "value": "significant anti-neoplastic activity"}]}]}
